target: T1, Human HPK1, catalytic domain (Homo sapiens, UniProt Q92918); assay: HPK1-SLP76 TR-FRET assay; format: biochemical; details: 75 pM HPK1, 10 uM ATP, 10 nM SLP76, 30 min compound pre-incubation
T1 construct: purchased Carna
T1 sequence (Q92918 1-346): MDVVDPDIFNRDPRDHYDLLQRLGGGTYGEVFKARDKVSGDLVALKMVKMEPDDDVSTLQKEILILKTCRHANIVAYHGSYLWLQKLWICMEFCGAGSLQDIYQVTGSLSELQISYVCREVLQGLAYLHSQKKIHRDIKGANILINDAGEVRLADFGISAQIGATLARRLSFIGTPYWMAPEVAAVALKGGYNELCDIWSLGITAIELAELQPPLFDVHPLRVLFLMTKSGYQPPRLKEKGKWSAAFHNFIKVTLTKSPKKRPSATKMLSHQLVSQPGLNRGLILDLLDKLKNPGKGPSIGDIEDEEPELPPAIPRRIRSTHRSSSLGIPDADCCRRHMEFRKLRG

Row | SMILES | IC50
1 | CC(C)(c1ccc(Nc2ncc(C(N)=O)c(Nc3cccc4c3CCNC4=O)n2)cc1)S(C)(=O)=O [Example 7-60, 2-({4-[2-(methylsulfonyl)propan-2-yl]phenyl}amino)-4-[(1-oxo-1,2,3,4-tetrahydroisoquinolin-5-yl)amino]pyrimidine-5-carboxamide] | 0.51 nM
2 | COc1cc2c(cc1Nc1ncc(C(N)=O)c(Nc3cccc(C#N)c3F)n1)CN(C)CC2 [Example 7-30, 4-[(3-cyano-2-fluorophenyl)amino]-2-[(6-methoxy-2-methyl-1,2,3,4-tetrahydroisoquinolin-7-yl)amino]pyrimidine-5-carboxamide] | 2.38 nM
3 | CCn1ncc(C)c1Nc1nc(Nc2cc3c(cc2OC)CCN(C)C3)ncc1C(N)=O [Example 7-93, 4-((1-ethyl-4-methyl-1H-pyrazol-5-yl)amino)-2-((6-methoxy-2-methyl-1,2,3,4-tetrahydroisoquinolin-7-yl)amino)pyrimidine-5-carboxamide] | 18.5 nM
4 | COc1cc2c(cc1Nc1ncc(C(N)=O)c(Nc3cccc(CNC(=O)C4(F)CC4)c3)n1)CN(C)CC2 [Example 3-1, 4~[(3~{[(1-fluorocyclo-propane-1-carbonyl)amino]-methyl}phenyl)amino]-2-[(6-methoxy-2-methyl-1,2,3,4-tetrahydroiso-quinolin-7-yl)amino]-pyrimidine-5-carboxamide] | 0.56 nM
5 | NC(=O)c1cnc(Nc2cnn3c2OCCC3)nc1Nc1cccc2c1CCNC2=O [Example 7-57, 2-[(6,7-dihydro-5H-pyrazolo[5,1-b][1,3]oxazin-3-yl)amino]-4-[(1-oxo-1,2,3,4-tetrahydroisoquinolin-5-yl)amino]pyrimidine-5-carboxamide] | 1.31 nM
6 | N#CC1(c2ccc(Nc3ncc(C(N)=O)c(Nc4cccc5c4CCNC5)n3)cc2)CC1 [Example 7-15, 2-{[4-(1-cyanocyclopropyl)phenyl]amino}-4-[(1,2,3,4-tetrahydroisoquinolin-5-yl)amino]pyrimidine-5-carboxamide] | 0.13 nM
7 | COc1cc2c(cc1Nc1ncc(C(N)=O)c(Nc3ccccc3I)n1)CN(C)CC2 [Example 7-70, 4-[(2-iodophenyl)amino]-2-[(6-methoxy-2-methyl-1,2,3,4-tetrahydroisoquinolin-7-yl)amino]pyrimidine-5-carboxamide] | 0.15 nM
8 | Cc1cccc(F)c1Nc1nc(Nc2cc3c(cc2F)CCN(C)C3)ncc1C(N)=O [Example 4-6] | 0.11 nM

Now from value to molecule:

Row | IC50 | SMILES
9 | 2.71 nM | COc1cc2c(cc1Nc1ncc(C(N)=O)c(NC3CCc4c(F)ccc(F)c43)n1)CN(C)CC2 (stereo not shown) [Example 26-70, 4-[(4,7-difluoro-2,3-dihydro-1H-inden-1-yl)amino]-2-[(6-methoxy-2-methyl-1,2,3,4-tetrahydroisoquinolin-7-yl)amino]pyrimidine-5-carboxamide]
10 | 0.57 nM | COc1cc2c(cc1Nc1ncc(C(N)=O)c(NCc3ccccc3OC(F)(F)F)n1)CN(C)CC2 [Example 26-18, 2-[(6-methoxy-2-methyl-1,2,3,4-tetrahydroisoquinolin-7-yl)amino]-4-({[2-(trifluoromethoxy)phenyl]methyl}amino)pyrimidine-5-carboxamide]
11 | 0.71 nM | COCCOCCOCCCN1CCc2cc(OC)c(Nc3ncc(C(N)=O)c(Nc4ccccc4Br)n3)cc2C1 [Example 9-5, 4-((2-bromophenyl)amino)-2-((6-methoxy-2-(3-(2-(2-methoxyethoxy)ethoxy)propyl)-1,2,3,4-tetrahydroisoquinolin-7-yl)amino)pyrimidine-5-carboxamide]
12 | 0.84 nM | COc1cc2c(cc1Nc1ncc(C(N)=O)c(Nc3ccccc3Br)n1)CN(C1CCOCC1)CC2 [Example 9-7, 4-[(2-bromophenyl)amino]-2-{[6-methoxy-2-(oxan-4-yl)-1,2,3,4-tetrahydroisoquinolin-7-yl]amino}pyrimidine-5-carboxamide]
13 | 22.8 nM | COc1cc2c(cc1Nc1ncc(C(N)=O)c(N[C@H](CO)C3CCCCC3)n1)CN(C)CC2 [Example 26-48, 4-{[(1S)-1-cyclohexyl-2-hydroxyethyl]amino}-2-[(6-methoxy-2-methyl-1,2,3,4-tetrahydroisoquinolin-7-yl)amino]pyrimidine-5-carboxamide]

— patent US20230416225A1, “DIAMINOPYRIMIDINE CARBOXAMIDE INHIBITORS OF HPK1” (MERCK SHARP & DOHME LLC, priority 2020, published 2023)
